Here are results for three compounds from patent EP4644391A1, “NOVEL PHENYLQUINOLONE COMPOUND HAVING ANTIBACTERIAL AND ANTICANCER FUNCTIONS, AND PREPARATION THEREOF” (Alphamol Science Ltd (Shanghai), priority 2022, dated 2024).

Each structure is given as a SMILES string. Values after ≈ are worked out from the molar mass of the structure shown. Where two headings read alike, the source gives them in different places.

In general, MIC refers to the smallest concentration in the dilution series that meets the test's criterion for growth inhibition. In general, IC50 refers to the concentration that gives 50% inhibition. A lower IC50 goes with greater potency in that assay.

Common to all, as to assay type: cell-based
One assay deals with E. coli ATCC 25922. The experiment in a line: In vitro antibacterial activity assay (MIC, broth dilution). Particulars: Escherichia coli, ATCC25922. From the text:
The method used to indicate the activity of the compounds in this example is to record the minimum inhibitory concentration (MIC) of the compounds against bacteria. The specific experimental method is as follows: • 1. The bacterial liquid cultured from a single colony was taken, and diluted into autoclaved CAMHB broth in a ratio of 1:1000, and mixed well. • 2. The prepared drug solution was filtered through a sterile 0.22µm syringe filter and placed in a sterile EP tube for later use. • 3. A 96-well plate was taken, and 20µL of drug solution (400µg/mL) was added to each well in the first column of the 96-well plate. Then, 180µL of diluted bacterial liquid was added and mixed well (Perform 3 replicate rows for each drug). The same process was performed for the hydrochloride drug. • 4. 100 µL of diluted bacterial liquid was added to each well in the remaining 11 columns of the 96-well plate. Drugs are the same as above. • 5. Serial dilution: 100µL of liquid was taken from the first column to the second column, mixed well, then 100µL of liquid was taken from the second column to the third column, mixed well, and so on, sequentially diluting down to the last column (column 12). After mixing column 12 well, 100µL of liquid thereof was discarded. The drug concentration in each well was decreased by two-fold serially (the concentration in the first well is 40µg/mL). • 6. Blank CAMHB broth without added bacteria liquid was added to 3 blank wells in the 96-well plate, as negative control. • 7. The diluted bacterial liquid was added to 3 blank wells in the 96-well plate, as positive control. • 8. Incubated at 37°C for 16 hours. • 9. Results reading: the minimum inhibitory concentration is the minimum drug concentration at which no bacterial growth is visible to the naked eye and without turbidity.
On the technique in general: Broth dilution looks for growth in wells or tubes with falling amounts of substance.

For assay [1], the system named is human acute T-lymphoblastic leukemia cell Jurkat. Put plainly: In vitro anticancer activity test (MTT cell proliferation assay). The protocol:
(§1) The anticancer activity of the compounds was tested using an in vitro cancer cell tests. The specific test method is as follows: • 1. Cell recovery and culture method: the cryovial was taken out from the liquid nitrogen container firstly, soaked directly in 37°C warm water, and shaked from time to time to let it thaw as soon as possible. Then, the cryovial was transferred to a clean bench, and the lid was open. […] Then, the supernatant was discarded, complete culture medium containing 10% fetal bovine serum was added to resuspend the cells, the cells was counted, the cell density was adjusted, and then inoculated into a culture bottle. The culture bottle was placed in a cell culture incubator at 5% CO2 and 37°C. The complete culture medium was replaced once the next day and the culture was continued. • 2. Cell passaging method: adherent cells in the logarithmic growth phase were placed in a clean bench, the original culture medium was discarded, and washed three times with 1×PBS. An appropriate amount of 0.25% trypsin digestion solution was added to moisten the cells, and then the trypsin solution was aspirated. […] When 90% of the cells become round, the cells were moved immediately to the clean bench and complete culture medium was added to terminate digestion. Then, the cells were dislodged by pipetting up and down with a rubber-tipped dropper to single cells. The cells were counted, and the cell density was adjusted. The cells were inoculated into a suitable culture bottle or dish, added enough complete culture medium, and placed in a cell culture incubator at 5% CO2 and 37°C for static culture. For suspension cells in the logarithmic phase, the original culture medium was directly centrifuged at 50g for 5 minutes, the supernatant was discarded, and the cells were washed once with PBS and centrifuged. After discarding the supernatant, the complete culture medium was added and the cells were dispersed using a rubber-tipped dropper. The cells are counted, and the cell density was adjusted. The cells were inoculated into appropriate culture bottles or culture dishes, and sufficient complete culture medium was added, and the cells were cultured in a cell culture incubator at 5% CO2 and 37°C. • 3.
Background: Tetrazolium dyes change colour on reduction, which living cells bring about.

Assay [2] deals with human breast cancer cell MCF-7. The description is as above. The conditions noted are these: MCF7. The protocol:
as §1, with “The cells were inoculated into appropriate culture bottles or culture dishes, and sufficient complete culture medium was added, and the cells were cultured in a cell culture incubator at 5% CO2 and 37°C. • 3.” left out

Assay [3] concerns human breast ductal carcinoma cell T-47D. Described as above. The conditions noted are these: T47D. Here is the method: as §1
Assay [4] concerns human ovarian adenocarcinoma cellSK-OV-3. The assay is described as above. Particulars: SK-OV-3. The protocol: as §1
The mark [5] stands for this setting: Table 2, 37°C, 16 hours, read-out: G- bacteria MIC E. coli ATCC 25922.

For `O=C(O)c1cn(C2CC2)c2cc(N3CCNCC3)c(F)cc2c1=O` [Ciprofloxacin], the minimal inhibitory concentration (MIC) in the assay on E. coli ATCC 25922 (setting [5]) is 0.1 to 1 µg/mL (≈ 0.302 to 3.02 µM). Moreover, the IC50 in assay [1] and in assay [2] was over 100 µM throughout.
As to `O=C(O)c1cn(C2CC2)c2c(Cl)c(-c3ccc(S(=O)(=O)NCCCC(F)(F)F)nc3)c(F)cc2c1=O` [Example 29, 8-chloro-1-cyclopropyl-6-fluoro-4-oxo-7-(6-(N-(4,4,4-trifluorobutyl)sulfamoyl)pyridin-3-yl)-1,4-dihydroquinolin-3-carboxylic acid], the MIC was at most 0.1 µg/mL with E. coli ATCC 25922 (setting [5]) and at most 1 µg/mL with E. coli ATCC 25922 (Table 3, read-out: E. coli ATCC 25922 MIC). Moreover, the half-maximal inhibitory concentration (IC50) in assay [3], in assay [1], in assay [4] and in assay [2] was 1 to 10 µM in each case.
`CCN(CC)CCNC(=O)c1c(C)[nH]c(/C=C2\C(=O)Nc3ccc(F)cc32)c1C` [Sunitinib]: the IC50 in assay [3] is 6.4 ± 1.7 µM; in assay [4] it was 12.2 ± 5.8 µM; in assay [2], 3.2 ± 0.3 µM.
